In PubChem BioAssay AID1963840 (Molecular Pharmacology Branch, DTP, NCI, 2024):

Tested on: 695427-040-R-J1-PDC complex spheroid viability
Assay: Anticancer human tumor 695427-040-R-J1-PDC patient-derived colon adenocarcinoma cell line growth inhibition [POLQ]
Details: for IC50: curve of first compound; for viability, T/C: stronger effect = lower value
Summary of the method: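 PDC + HUVEC + MSC complex spheroids; POLQ inhibitors ± partner drugs; top conc. at/near clinical Cmax, else 10 microM (SN-38 1 microM), half-log dilutions; 37 degrees C, 5% CO2.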

[1] = second compound 0.0316 µM, first compound 0.0316 µM
[2] = second compound 0.0316 µM, first compound 0.1 µM
[3] = second compound 0.1 µM, first compound 0.0316 µM
[4] = second compound 0.1 µM, first compound 0.1 µM
[5] = second compound 0.316 µM, first compound 0.0316 µM
[6] = second compound 0.316 µM, first compound 0.1 µM
[7] = second compound 1 µM, first compound 0.0316 µM
[8] = second compound 1 µM, first compound 0.1 µM
[9] = second compound 3.16 µM, first compound 0.0316 µM
[10] = second compound 3.16 µM, first compound 0.1 µM
[11] = second compound 10 µM, first compound 0.0316 µM
[12] = second compound 10 µM, first compound 0.1 µM
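Note: spheroids exposed to compounds for seven days.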
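Throughout, for viability, T/C: 100% = DMSO vehicle control viability.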

COc1ccc([C@@H](O)c2cc(-c3ncnc4cc(N5CCOCC5)ccc34)c(F)cc2Cl)nn1 + COC1C(OC(N)=O)C(O)C(Oc2ccc3c(O)c(NC(=O)c4ccc(O)c(CC=C(C)C)c4)c(=O)oc3c2C)OC1(C)C gave an IC50 (second compound 0.0316 µM) greater than 10 µM, an IC50 (second compound 0.1 µM) greater than 10 µM and an IC50 (second compound 0.316 µM) greater than 10 µM. It also gave an IC50 (second compound 1 µM) greater than 10 µM, an IC50 (second compound 3.16 µM) greater than 10 µM and an IC50 (second compound 10 µM) greater than 10 µM. It also gave a viability, T/C [1] of 104%, a viability, T/C [2] of 99.5% and a viability, T/C (second compound 0.0316 µM, first compound 0.316 µM) of 105%. For the same compound, the viability, T/C (second compound 0.0316 µM, first compound 1 µM) was 92.9%, the viability, T/C (second compound 0.0316 µM, first compound 3.16 µM) was 75.5% and the viability, T/C (second compound 0.0316 µM, first compound 10 µM) was 56%. It also gave a viability, T/C [3] of 114%, a viability, T/C [4] of 104% and a viability, T/C (second compound 0.1 µM, first compound 0.316 µM) of 104%. The viability, T/C (second compound 0.1 µM, first compound 1 µM) was 94.2%, the viability, T/C (second compound 0.1 µM, first compound 3.16 µM) was 76.7% and the viability, T/C (second compound 0.1 µM, first compound 10 µM) was 57.9%. It also gave a viability, T/C [5] of 127%, a viability, T/C [6] of 99.1% and a viability, T/C (second compound 0.316 µM, first compound 0.316 µM) of 99%. The viability, T/C (second compound 0.316 µM, first compound 1 µM) was 89.9%, the viability, T/C (second compound 0.316 µM, first compound 3.16 µM) was 76.8% and the viability, T/C (second compound 0.316 µM, first compound 10 µM) was 51.5%. The viability, T/C [7] was 94.9%, the viability, T/C [8] was 92.3% and the viability, T/C (second compound 1 µM, first compound 0.316 µM) was 98.3%. The viability, T/C (second compound 1 µM, first compound 1 µM) was 91.5%, the viability, T/C (second compound 1 µM, first compound 3.16 µM) was 82% and the viability, T/C (second compound 1 µM, first compound 10 µM) was 54.5%. The viability, T/C [9] was 105%, the viability, T/C [10] was 101% and the viability, T/C (second compound 3.16 µM, first compound 0.316 µM) was 97%. For the same compound, the viability, T/C (second compound 3.16 µM, first compound 1 µM) was 98.4%, the viability, T/C (second compound 3.16 µM, first compound 3.16 µM) was 83.5% and the viability, T/C (second compound 3.16 µM, first compound 10 µM) was 57.6%. It also gave a viability, T/C [11] of 101%, a viability, T/C [12] of 89.6% and a viability, T/C (second compound 10 µM, first compound 0.316 µM) of 94.4%. It also gave a viability, T/C (second compound 10 µM, first compound 1 µM) of 101%, a viability, T/C (second compound 10 µM, first compound 3.16 µM) of 76.8% and a viability, T/C (second compound 10 µM, first compound 10 µM) of 51.7%.

Cn1ncnc1[C@H]1c2n[nH]c(=O)c3cc(F)cc(c23)N[C@@H]1c1ccc(F)cc1 + COC1C(OC(N)=O)C(O)C(Oc2ccc3c(O)c(NC(=O)c4ccc(O)c(CC=C(C)C)c4)c(=O)oc3c2C)OC1(C)C showed an IC50 (second compound 0.0316 µM) greater than 0.1 µM, an IC50 (second compound 0.1 µM) greater than 0.1 µM and an IC50 (second compound 0.316 µM) greater than 0.1 µM. For the same compound, the IC50 (second compound 1 µM) was greater than 0.1 µM, the IC50 (second compound 3.16 µM) was greater than 0.1 µM and the IC50 (second compound 10 µM) was greater than 0.1 µM. For the same compound, the viability, T/C (second compound 0.0316 µM, first compound 0.000316 µM) was 92%, the viability, T/C (second compound 0.0316 µM, first compound 0.001 µM) was 96.6% and the viability, T/C (second compound 0.0316 µM, first compound 0.00316 µM) was 93.5%. For the same compound, the viability, T/C (second compound 0.0316 µM, first compound 0.01 µM) was 105%, the viability, T/C [1] was 106% and the viability, T/C [2] was 84.1%. For the same compound, the viability, T/C (second compound 0.1 µM, first compound 0.000316 µM) was 99.4%, the viability, T/C (second compound 0.1 µM, first compound 0.001 µM) was 93.3% and the viability, T/C (second compound 0.1 µM, first compound 0.00316 µM) was 107%. It also gave a viability, T/C (second compound 0.1 µM, first compound 0.01 µM) of 101%, a viability, T/C [3] of 98.4% and a viability, T/C [4] of 83.8%. For the same compound, the viability, T/C (second compound 0.316 µM, first compound 0.000316 µM) was 106%, the viability, T/C (second compound 0.316 µM, first compound 0.001 µM) was 101% and the viability, T/C (second compound 0.316 µM, first compound 0.00316 µM) was 98.4%. It also gave a viability, T/C (second compound 0.316 µM, first compound 0.01 µM) of 106%, a viability, T/C [5] of 103% and a viability, T/C [6] of 92.1%. For the same compound, the viability, T/C (second compound 1 µM, first compound 0.000316 µM) was 103%, the viability, T/C (second compound 1 µM, first compound 0.001 µM) was 101% and the viability, T/C (second compound 1 µM, first compound 0.00316 µM) was 96.3%. The viability, T/C (second compound 1 µM, first compound 0.01 µM) was 95.1%, the viability, T/C [7] was 93.9% and the viability, T/C [8] was 91%. It also gave a viability, T/C (second compound 3.16 µM, first compound 0.000316 µM) of 96.6%, a viability, T/C (second compound 3.16 µM, first compound 0.001 µM) of 90.9% and a viability, T/C (second compound 3.16 µM, first compound 0.00316 µM) of 90.9%. The viability, T/C (second compound 3.16 µM, first compound 0.01 µM) was 98.3%, the viability, T/C [9] was 105% and the viability, T/C [10] was 94.6%. It also gave a viability, T/C (second compound 10 µM, first compound 0.000316 µM) of 103%, a viability, T/C (second compound 10 µM, first compound 0.001 µM) of 99.6% and a viability, T/C (second compound 10 µM, first compound 0.00316 µM) of 99%. For the same compound, the viability, T/C (second compound 10 µM, first compound 0.01 µM) was 106%, the viability, T/C [11] was 113% and the viability, T/C [12] was 101%.
